Experimental data published in US8791267B2, “Biaryl PDE4 inhibitors for treating inflammatory, cardiovascular and CNS disorders” (Decode Genetics EHF, priority 2007, dated 2014).
Counter-ions that a name gives are not always drawn.

Each compound was assayed against PDE4 (Homo sapiens, UniProt Q08499) (assay: In-vitro assay for PDE4 enzymes, real-time enzyme-coupled spectrophotometric assay (Table 9)). Settings: not given.
Assay type: biochemical

PDE4, sequence (Q08499 whole entry): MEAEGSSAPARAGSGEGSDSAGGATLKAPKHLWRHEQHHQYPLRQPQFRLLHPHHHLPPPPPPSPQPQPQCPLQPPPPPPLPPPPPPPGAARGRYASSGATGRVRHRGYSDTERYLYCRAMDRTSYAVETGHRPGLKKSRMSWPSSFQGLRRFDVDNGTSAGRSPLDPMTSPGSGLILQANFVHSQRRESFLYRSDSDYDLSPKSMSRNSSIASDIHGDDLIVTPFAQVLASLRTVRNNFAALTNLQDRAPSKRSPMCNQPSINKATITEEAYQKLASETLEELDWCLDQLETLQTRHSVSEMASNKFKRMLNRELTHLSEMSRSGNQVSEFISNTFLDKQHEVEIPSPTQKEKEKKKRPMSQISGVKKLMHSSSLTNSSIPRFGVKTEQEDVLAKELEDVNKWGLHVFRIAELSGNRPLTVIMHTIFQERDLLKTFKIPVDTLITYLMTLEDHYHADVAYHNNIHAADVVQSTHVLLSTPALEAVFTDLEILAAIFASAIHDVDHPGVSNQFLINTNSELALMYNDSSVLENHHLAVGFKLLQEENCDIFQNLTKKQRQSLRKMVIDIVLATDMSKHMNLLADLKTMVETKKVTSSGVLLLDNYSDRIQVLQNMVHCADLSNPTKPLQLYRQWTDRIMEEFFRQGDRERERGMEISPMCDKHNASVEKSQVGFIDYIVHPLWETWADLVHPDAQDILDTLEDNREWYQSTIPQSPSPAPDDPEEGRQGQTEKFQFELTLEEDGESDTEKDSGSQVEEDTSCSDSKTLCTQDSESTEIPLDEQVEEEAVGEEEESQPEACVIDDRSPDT

| SMILES | IC50 |
| --- | --- |
| COc1ccc(Cc2ccc(CNC(=O)Oc3ccccc3)nc2)c(F)c1-c1cccc(Cl)c1 [P-520, [5-(3′-Chloro-2-fluoro-6-methoxy-biphenyl-3-ylmethyl)-pyridin-2-ylmethyl]-carbamic acid phenyl ester] | < 5 µM |

Same assay, conditions: human PDE4D; activity class, Table 9; read-out: hPDE4D

| IC50 | SMILES |
| --- | --- |
| < 5 µM | COc1ccc(C(=O)c2ccc(NC(N)=O)cc2)c(F)c1-c1cccc(Cl)c1 [P-434, [4-(3′-chloro-2-fluoro-6-methoxy-biphenyl-3-carbonyl)-phenyl]-urea] |
| < 5 µM | COc1ccc(Cn2cnc3ccccc32)cc1-c1cccc([N+](=O)[O-])c1 [P-483, 1-(6-Methoxy-3′-nitro-biphenyl-3-ylmethyl)-1H-benzoimidazole] |
| 5 to 20 µM | COc1ccc(CN2CCOCC2)nc1-c1cccc([N+](=O)[O-])c1 [P-026, 4-[5-methoxy-6-(3-nitro-phenyl)-pyridin-2-ylmethyl]-morpholine] |
| 5 to 20 µM | COc1ccc(Cn2cncn2)cc1-c1cccc([S+](C)[O-])c1 (centres unmarked) [P-169, 1-(3′-Methanesulfinyl-6-methoxy-biphenyl-3-ylmethyl)-1H-[1,2,4]triazole] |
| < 5 µM | COc1ccc(Cc2ccc(N(C)C)cc2)c(O)c1-c1cccc([N+](=O)[O-])c1 [P-157, 3-(4-Dimethylamino-benzyl)-6-methoxy-3′-nitro-biphenyl-2-ol] |
| < 5 µM | COc1ccc(Cc2ccc(NC(C)=O)cc2)c(F)c1-c1cccc(N)c1 [P-167] |
| < 5 µM | COc1ccc(Cc2ccc(N3CCC(O)C3)nc2)cc1-c1cccc(Cl)c1 (centres unmarked) [P-602, 1-[5-(3′-chloro-6-methoxy-biphenyl-3-ylmethyl)-pyridin-2-yl]-pyrrolidin-3-ol] |
| < 5 µM | COc1ccc(Cc2ccc(F)cc2)c(OC)c1-c1cccc([N+](=O)[O-])c1 [P-097] |
| < 5 µM | COc1ccc(Cc2ccc(Nc3nccs3)cc2)cc1-c1cccc(Cl)c1 [P-454, [4-(3′-Chloro-6-methoxy-biphenyl-3-ylmethyl)-phenyl]-thiazol-2-yl-amine] |
| < 5 µM | COc1ccc(Cc2ccc(F)cc2)c(F)c1-c1cccc(Br)c1 [P-139] |
| 5 to 20 µM | CN(C)CCOc1ccc(Cc2ccc(NC(N)=O)cc2)cc1-c1cccc(Cl)c1 [P-548, {4-[3′-Chloro-6-(2-dimethylamino-ethoxy)-biphenyl-3-ylmethyl]-phenyl}-urea] |
| < 5 µM | COc1ccc(Cc2ccc(C(C)(C)N)nc2)c(F)c1-c1cccc(Cl)c1 [P-595, 1-[5-(3′-Chloro-2-fluoro-6-methoxy-biphenyl-3-ylmethyl)-pyridin-2-yl]-1-methyl-ethylamine] |
| 5 to 20 µM | COc1ccc(Cc2ccc(NC(C)=O)cc2)c(F)c1-c1cccc(N2CCOCC2)c1 [P-390, N-[4-(2-Fluoro-6-methoxy-3′-morpholin-4-yl-biphenyl-3-ylmethyl)-phenyl]-acetamide] |
| < 5 µM | COc1ccc(Cc2ccc(F)cc2)cc1-c1ccc2c(c1)OC(F)(F)O2 [P-141, 2,2-Difluoro-5-[5-(4-fluoro-benzyl)-2-methoxy-phenyl]-benzo[1,3]dioxole] |
| 5 to 20 µM | COc1ccc(C=Cc2ccc(F)cc2)c(F)c1-c1cccc(Cl)c1 [P-418] |
| 5 to 20 µM | COc1ccc(Cc2cccc(CNC(=O)OC(C)(C)C)c2)cc1-c1cccc([N+](=O)[O-])c1 [P-160, [3-(6-Methoxy-3′-nitro-biphenyl-3-ylmethyl)-benzyl]-carbamic acid tert-butyl ester] |
| < 5 µM | COc1ccc(N(C)c2ccc(NC(N)=O)cc2)cc1-c1cccc(Cl)c1 [P-293, {4-[(3′-Chloro-6-methoxy-biphenyl-3-yl)-methyl-amino]-phenyl}-urea] |
| < 5 µM | COc1ccc(Cn2cc(-c3ccncn3)cn2)c(F)c1-c1cccc(Cl)c1 [P-546, 4-[1-(3′-Chloro-2-fluoro-6-methoxy-biphenyl-3-ylmethyl)-1H-pyrazol-4-yl]-pyrimidine hydrochloride salt] |
| < 5 µM | COc1ccc(COc2ccc(Br)cn2)c(F)c1-c1cccc(Cl)c1 [P-574] |
| 5 to 20 µM | COc1ccc(Cc2ccc(N3CCNCC3)nc2)c(F)c1-c1cccc(Cl)c1 [P-423, 1-[5-(3′-chloro-2-fluoro-6-methoxy-biphenyl-3-ylmethyl)-pyridin-2-yl]-piperazine] |
| < 5 µM | COc1ccc(C(=O)c2ccc(N)cc2)cc1-c1ccc(F)c(F)c1 [P-580] |
| < 5 µM | COc1ccc(Cc2ccc(F)cc2)c(C#N)c1-c1cccc([N+](=O)[O-])c1 [P-163, 3-(4-fluoro-benzyl)-6-methoxy-3′-nitro-biphenyl-2-carbonitrile] |

Continued, compound first:

| SMILES | IC50 |
| --- | --- |
| CNc1ccc(Cc2ccc(OC)c(-c3cccc(Cl)c3)c2)cc1 [P-476, [4-(3′-Chloro-6-methoxy-biphenyl-3-ylmethyl)-phenyl]-methyl-amine hydrochloric acid] | < 5 µM |
| CCNc1ccc(Cc2ccc(OC)c(-c3cccc(Cl)c3)c2)cc1 [P-247, [4-(3′-Chloro-6-methoxy-biphenyl-3-ylmethyl)-phenyl]-ethylamine; HCl salt] | < 5 µM |
| COc1ccc(Cn2nc(C(F)(F)F)cc2-c2cccnc2)c(F)c1-c1cccc(Cl)c1 [P-552, 3-[2-(3′-Chloro-2-fluoro-6-methoxy-biphenyl-3-ylmethyl)-5-trifluoromethyl-2H-pyrazol-3-yl]-pyridine hydrochloride salt] | < 5 µM |
| COc1ccc(CN2C(=O)c3ccccc3C2=O)cc1-c1ccc2c(c1)OCO2 [P-052, 2-(3-Benzo[1,3]dioxol-5-yl-4-methoxy-benzyl)-isoindole-1,3-dione] | < 5 µM |
| CNCC(=O)Nc1ccc(Cc2ccc(OC)c(-c3cccc(Cl)c3)c2F)cc1 [P-289] | < 5 µM |
| COc1ccc(Cc2ccc(NC(C)=O)cc2)c(F)c1-c1cccc(N2CCCC2)c1 [P-381, N-[4-(2-Fluoro-6-methoxy-3′-pyrrolidin-1-yl-biphenyl-3-ylmethyl)-phenyl]-acetamide] | < 5 µM |
| COc1ccc(Cc2ccc(NC(=O)CN(C)C)cc2)c(F)c1-c1cccc(Cl)c1 [P-238, N-[4-(3′-chloro-2-fluoro-6-methoxy-biphenyl-3-ylmethyl)-phenyl]-2-dimethylamino-acetamide] | < 5 µM |
| COc1ccc(C(=O)c2ccc(N)cc2)cc1-c1cccc(Cl)c1 [P-558, (4-amino-phenyl)-(3′-chloro-6-methoxy-biphenyl-3-yl)-methanone] | < 5 µM |
| COc1ccc(Cc2ccc([N+](=O)[O-])c(O)c2)c(F)c1-c1cccc(Cl)c1 [P-257] | < 5 µM |
| COc1ccc(Cc2ccc(N3CCC(O)C3)nc2)c(F)c1-c1cccc(Cl)c1 (centres unmarked) [P-601, 1-[5-(3′-chloro-2-fluoro-6-methoxy-biphenyl-3-ylmethyl)-pyridin-2-yl]-pyrrolidin-3-ol] | < 5 µM |
| CCOc1ccc(Cc2ccc(NC(C)=O)cc2)c(F)c1-c1cccc(Br)c1 [P-322] | < 5 µM |
| COc1ccc(Cc2cccc(NC(C)=O)c2)cc1-c1cccc(Cl)c1 [P-477, N-[3-(3′-Chloro-6-methoxy-biphenyl-3-ylmethyl)-phenyl]-acetamide] | < 5 µM |
| COc1ccc(Cc2ccc(F)cc2)cc1-c1ccc2c(c1)OCO2 [P-003, 5-[5-(4-Fluoro-benzyl)-2-methoxy-phenyl]-benzo[1,3]dioxole] | < 5 µM |
| NC(=O)COc1ccc(Cc2ccc(NC(N)=O)cc2)cc1-c1cccc(Cl)c1 [P-557, 2-[3′-Chloro-5-(4-ureido-benzyl)-biphenyl-2-yloxy]-acetamide] | < 5 µM |
| COc1ccc(Cc2ccc(F)cc2)nc1-c1cccc(C(F)(F)F)c1 [P-065, 6-(4-fluoro-benzyl)-3-methoxy-2-(3-trifluoromethyl-phenyl)-pyridine] | < 5 µM |
| COc1ccc(COc2ccc(NC(N)=O)cc2)c(F)c1-c1cccc(Cl)c1 [P-589] | < 5 µM |
| COc1ccc(COc2ccc(N3CCC3)nc2)c(F)c1-c1cccc(Cl)c1 [P-586] | < 5 µM |
| CN1CC[C@H](Oc2ccc(Cc3ccc(NC(N)=O)cc3)cc2-c2cccc(Cl)c2)C1 [P-556] | 5 to 20 µM |
| CNC(=O)Cc1ccc(OC)c(-c2cccc([N+](=O)[O-])c2)c1 [P-027] | < 5 µM |
| COc1ccc(Cc2ccc(N(C)C)cc2)c(F)c1-c1cccc(C(C)=O)c1 [P-326, 1-[3′-(4-Dimethylamino-benzyl)-2′-fluoro-6′-methoxy-biphenyl-3-yl]-ethanone] | < 5 µM |
| COc1ccc(Cc2ccc(F)cc2)cc1-n1cc(Cl)cn1 [P-380, 4-Chloro-1-[5-(4-fluoro-benzyl)-2-methoxy-phenyl]-1H-pyrazole] | < 5 µM |
| COc1ccc(CN2C(=O)CC[C@@H]2CO)cc1-c1cccc([N+](=O)[O-])c1 [P-132, (R)-5-Hydroxymethyl-1-(6-methoxy-3′-nitro-biphenyl-3-ylmethyl)-pyrrolidin-2-one] | 20 to 40 µM |
| [2H]C(O)(c1ccc(NC(N)=O)cc1)c1ccc(OC)c(-c2cccc(Cl)c2)c1 (centres unmarked) [P-584] | 5 to 20 µM |
| COc1ccc(Cc2ccc(F)cc2)cc1-n1ccc(C(F)(F)F)n1 [P-396, 1-[5-(4-Fluoro-benzyl)-2-methoxy-phenyl]-3-trifluoromethyl-1H-pyrazole] | < 5 µM |
| COc1ccc(Cc2ccc(CNS(C)(=O)=O)c(F)c2)c(F)c1-c1cccc(Cl)c1 [P-286] | < 5 µM |
| COc1ccc(Cc2ccc(N3CC[C@@H]3C(N)=O)nc2)c(F)c1-c1cccc(Cl)c1 [P-617, (R)-1-[5-(3′-chloro-2-fluoro-6methoxy-biphenyl-3-ylmethyl)-pyridin-2-yl]-azetidine-2-carboxylic acid amide] | < 5 µM |
| COc1ccc(Cn2cncn2)nc1-c1cccc(C(F)(F)F)c1 [P-064, 3-methoxy-6-[1,2,4]triazol-1-ylmethyl-2-(3-trifluoromethyl-phenyl)-pyridine] | 5 to 20 µM |
| COc1ccc(Cc2ccc(N3CC[C@H]3C(N)=O)nc2)c(F)c1-c1cccc(Cl)c1 [P-615, (S)-1-[5-(3′-chloro-2-fluoro-6methoxy-biphenyl-3-ylmethyl)-pyridin-2-yl]-azetidine-2-carboxylic acid amide] | < 5 µM |
| O=[N+]([O-])c1cccc(-c2cc(Cc3ccc(F)cc3)ccc2OC(F)(F)F)c1 [P-080, 5-(4-Fluoro-benzyl)-3′-nitro-2-trifluoromethoxy-biphenyl] | < 5 µM |
| CN(C)CC(=O)Nc1ccc(Cc2ccc(OC(F)F)c(-c3cccc(Cl)c3)c2)cn1 [P-618, N-[5-(3′-Chloro-6-difluoromethoxy-biphenyl-3-ylmethyl)-pyridin-2-yl]-2-dimethylamino-acetamide hydrochloride] | < 5 µM |
